# Data published in ChEMBL document CHEMBL1201862, “PubChem BioAssay data set” (2004).
#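 How tested: cells in 96-well plates exposed to compound for 48 hours at five concentrations. GI50: concentration for 50% inhibition of growth.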 Active and inactive are the calls of the source. Rule as the data show it: active = GI50 up to about 1.1 µM and inactive = higher.
# How the values were obtained:
# Experiment in all cases: NCI anticancer screen, dose series, 48 h
# 786-0 = tested on: 786-0
# A498 = tested on: A498
# A549 = tested on: A549
# ACHN = tested on: ACHN
# BT-549 = tested on: BT-549
# CAKI-1 = tested on: CAKI-1
# DU-145 = tested on: DU-145
# EKVX = tested on: EKVX
# HCC 2998 = tested on: HCC 2998
# HCT-116 = tested on: HCT-116
# HCT-15 = tested on: HCT-15
# HL-60 = tested on: HL-60
# HOP-62 = tested on: HOP-62
# HOP-92 = tested on: HOP-92
# HT-29 = tested on: HT-29
# Hs-578T = tested on: Hs-578T
# IGROV-1 = tested on: IGROV-1
# KM12 = tested on: KM12
# LOX IMVI = tested on: LOX IMVI
# M14 = tested on: M14
# MCF7 = tested on: MCF7
# MDA-MB-231 = tested on: MDA-MB-231
# MDA-MB-435 = tested on: MDA-MB-435
# MDA-N = tested on: MDA-N
# MOLT-4 = tested on: MOLT-4
# Malme-3M = tested on: Malme-3M
# NCI-H226 = tested on: NCI-H226
# NCI-H23 = tested on: NCI-H23
# NCI-H460 = tested on: NCI-H460
# NCI-H522 = tested on: NCI-H522
# NCI/ADR-RES = tested on: NCI/ADR-RES
# OVCAR-3 = tested on: OVCAR-3
# OVCAR-4 = tested on: OVCAR-4
# OVCAR-5 = tested on: OVCAR-5
# OVCAR-8 = tested on: OVCAR-8
# PC-3 = tested on: PC-3
# RXF 393 = tested on: RXF 393
# SF-268 = tested on: SF-268
# SF-295 = tested on: SF-295
# SF-539 = tested on: SF-539
# SK-MEL-28 = tested on: SK-MEL-28
# SK-MEL-2 = tested on: SK-MEL-2
# SK-OV-3 = tested on: SK-OV-3
# SN12C = tested on: SN12C
# SNB-19 = tested on: SNB-19
# SNB-75 = tested on: SNB-75
# SR = tested on: SR
# SW-620 = tested on: SW-620
# T47D = tested on: T47D
# TK-10 = tested on: TK-10
# U-251 = tested on: U-251
# UACC-257 = tested on: UACC-257
# UACC-62 = tested on: UACC-62
# UO-31 = tested on: UO-31
# CCRF-CEM = tested on: CCRF-CEM
# COLO 205 = tested on: COLO 205
# K562 = tested on: K562
# SK-MEL-5 = tested on: SK-MEL-5
structure (smiles),measurement,setting,value
FC(F)(F)c1ccc2nc3n(c2c1)C(c1c(Cl)cccc1Cl)SC3 (stereo not given),GI50,786-0,14.7 µM (inactive)
same,GI50,A498,19.8 µM (inactive)
same,GI50,A549,15 µM (inactive)
same,GI50,ACHN,15.9 µM (inactive)
same,GI50,BT-549,20.7 µM (inactive)
same,GI50,CAKI-1,14.8 µM (inactive)
same,GI50,DU-145,17 µM (inactive)
same,GI50,EKVX,13.8 µM (inactive)
same,GI50,HCC 2998,18.5 µM (inactive)
same,GI50,HCT-116,10.5 µM (inactive)
same,GI50,HCT-15,14.2 µM
same,GI50,HL-60,2.47 µM (inactive)
same,GI50,HOP-62,15.8 µM (inactive)
same,GI50,HOP-92,4.65 µM (inactive)
same,GI50,HT-29,15.4 µM (inactive)
same,GI50,Hs-578T,23.1 µM (inactive)
same,GI50,IGROV-1,11.5 µM (inactive)
same,GI50,KM12,14.6 µM (inactive)
same,GI50,LOX IMVI,27.6 µM (inactive)
same,GI50,M14,16 µM (inactive)
same,GI50,MCF7,16.1 µM (inactive)
same,GI50,MDA-MB-231,18.1 µM (inactive)
same,GI50,MDA-MB-435,15 µM (inactive)
same,GI50,MDA-N,11.7 µM (inactive)
same,GI50,MOLT-4,9.48 µM (inactive)
same,GI50,Malme-3M,13.3 µM (inactive)
same,GI50,NCI-H226,17.3 µM (inactive)
same,GI50,NCI-H23,15.1 µM (inactive)
same,GI50,NCI-H460,14.5 µM (inactive)
same,GI50,NCI-H522,11.9 µM (inactive)
same,GI50,NCI/ADR-RES,11.3 µM (inactive)
same,GI50,OVCAR-3,15.6 µM (inactive)
same,GI50,OVCAR-4,15.8 µM (inactive)
same,GI50,OVCAR-5,15.9 µM (inactive)
same,GI50,OVCAR-8,19.6 µM (inactive)
same,GI50,PC-3,14.9 µM (inactive)
same,GI50,RXF 393,15.2 µM (inactive)
same,GI50,SF-268,21.6 µM (inactive)
same,GI50,SF-295,16.4 µM (inactive)
same,GI50,SF-539,15.7 µM (inactive)
same,GI50,SK-MEL-28,14.9 µM (inactive)
same,GI50,SK-MEL-2,18.2 µM (inactive)
same,GI50,SK-OV-3,14 µM (inactive)
same,GI50,SN12C,18.1 µM (inactive)
same,GI50,SNB-19,18.6 µM (inactive)
same,GI50,SNB-75,13 µM (inactive)
same,GI50,SR,4.24 µM (inactive)
same,GI50,SW-620,17.8 µM (inactive)
same,GI50,T47D,11.2 µM (inactive)
same,GI50,TK-10,18.3 µM (inactive)
same,GI50,U-251,17.4 µM (inactive)
same,GI50,UACC-257,14.1 µM (inactive)
same,GI50,UACC-62,14.5 µM (inactive)
same,GI50,UO-31,13.8 µM (inactive)
CC1=C(/C=C/Cl)CC(Cl)C(C)(Cl)C1 (stereo not given),GI50,786-0,> 100 µM (inactive)
same,GI50,A498,> 100 µM (inactive)
same,GI50,A549,> 100 µM (inactive)
same,GI50,ACHN,> 100 µM (inactive)
same,GI50,BT-549,> 100 µM (inactive)
same,GI50,CAKI-1,> 100 µM (inactive)
same,GI50,CCRF-CEM,19.6 µM (inactive)
same,GI50,COLO 205,> 100 µM (inactive)
same,GI50,DU-145,> 100 µM (inactive)
same,GI50,EKVX,> 100 µM (inactive)
same,GI50,HCC 2998,> 100 µM (inactive)
same,GI50,HCT-116,> 100 µM (inactive)
same,GI50,HCT-15,> 100 µM
same,GI50,HL-60,20.4 µM (inactive)
same,GI50,HOP-92,53 µM (inactive)
same,GI50,HT-29,55.8 µM (inactive)
same,GI50,Hs-578T,> 100 µM (inactive)
same,GI50,IGROV-1,> 100 µM (inactive)
same,GI50,K562,> 100 µM (inactive)
same,GI50,KM12,> 100 µM (inactive)
same,GI50,LOX IMVI,> 100 µM (inactive)
same,GI50,M14,> 100 µM (inactive)
same,GI50,MCF7,40 µM (inactive)
same,GI50,MDA-MB-231,> 100 µM (inactive)
same,GI50,MDA-MB-435,> 100 µM (inactive)
same,GI50,MDA-N,> 100 µM (inactive)
same,GI50,MOLT-4,63.5 µM (inactive)
same,GI50,Malme-3M,> 100 µM (inactive)
same,GI50,NCI-H226,> 100 µM (inactive)
same,GI50,NCI-H23,> 100 µM (inactive)
same,GI50,NCI-H460,> 100 µM (inactive)
same,GI50,NCI-H522,91.2 µM (inactive)
same,GI50,NCI/ADR-RES,> 100 µM (inactive)
same,GI50,OVCAR-4,83.8 µM (inactive)
same,GI50,OVCAR-5,> 100 µM (inactive)
same,GI50,OVCAR-8,> 100 µM (inactive)
same,GI50,PC-3,> 100 µM (inactive)
same,GI50,RXF 393,10.6 µM (inactive)
same,GI50,SF-268,> 100 µM (inactive)
same,GI50,SF-295,> 100 µM (inactive)
same,GI50,SF-539,> 100 µM (inactive)
same,GI50,SK-MEL-28,> 100 µM (inactive)
same,GI50,SK-MEL-2,> 100 µM (inactive)
same,GI50,SK-MEL-5,> 100 µM (inactive)
same,GI50,SK-OV-3,> 100 µM (inactive)
same,GI50,SN12C,> 100 µM (inactive)
same,GI50,SNB-19,> 100 µM (inactive)
same,GI50,SNB-75,> 100 µM (inactive)
same,GI50,SR,> 100 µM (inactive)
same,GI50,SW-620,> 100 µM (inactive)
same,GI50,T47D,> 100 µM (inactive)
same,GI50,TK-10,> 100 µM (inactive)
same,GI50,U-251,> 100 µM (inactive)
same,GI50,UACC-257,> 100 µM (inactive)
same,GI50,UACC-62,> 100 µM (inactive)
same,GI50,UO-31,> 100 µM (inactive)
